Reference: patent publication US20030087799A1, “Modulation” (priority 2001, published 2003)
Where two headings read alike, the source gives them in different places.

What was measured:
dopaminergic neurons [1] = format: cell-based, mouse
dopaminergic neurons [2] = tested on: dopaminergic neurons
[3] = tested on: dopaminergic midbrain neurons; format: cell-based, mouse
[4] = tested on: T-type calcium channels (low voltage-activated calcium currents); format: cell-based, mouse; details: read-out: IC50 of I-LVA inhibition (Hill function)
[5] = tested on: SK mediated AHP currents (I-AHP) in dopaminergic neurons; experiment: cells; format: cell-based, mouse; details: for IC50: read-out: IC50 of I-AHP inhibition (Hill function)
globus pallidus neurones = experiment: Electrical activity of globus pallidus neurones in brain slices; format: cell-based, mouse
GABAA receptor = GABAA receptor mediated chloride currents evoked on cultured neurones; format: cell-based
[6] = tested on: Ih channels in DA SN neurones; experiment: Pacemaker frequency of DA SN neurones under selective Ih inhibition; format: cell-based; details: 30 μM ZD7288
[7] = tested on: K-ATP channels in DA neurones; experiment: K-ATP channel mediated response of DA neurones to mitochondrial inhibitors; format: cell-based, mouse; details: read-out: EC50 of K-ATP channel sensitivity

[Ni+2] [nickel]
coefficient of variation (CV) of interspike intervals, representative recording (dopaminergic neurons [1]): 38% | mean CV of interspike intervals (dopaminergic neurons [1]): 27±5% | fold reduction of AHPs with successive action potentials (cumulative inactivation) (dopaminergic neurons [2]): 1.1±0.1 | bursting value (action potentials in bursts / total) [3]: 12±6% | IC50 [4]: 33.9 µM | inhibition of cobalt-sensitive I-AHP [5]: 85±9% | IC50 [5]: 33.8 µM

[Co+2] [cobalt]
I-AHP residual current (cobalt block) ([5]; 1 mM cobalt, n=29): 29±4%

picrotoxin
effect on GAA-induced effects (globus pallidus neurones; GABAA receptor antagonists): blocked

[H]/N=C(/N)NCC(=O)O [GAA, guanidinoacetate]
EC50 (GABAA receptor): 164 µM

CCN(c1ccccc1)c1cc(=NC)n(C)c(C)n1.Cl [ZD7288]
decrease of pacemaker frequency [6]: about 50%

C[n+]1ccc(-c2ccccc2)cc1 [MPP^+]
EC50 ([7]; MPP+): ~2 µM

C=C(C)[C@H]1Cc2c(ccc3c2O[C@@H]2COc4cc(OC)c(OC)cc4[C@@H]2C3=O)O1 [rotenone]
EC50 ([7]; rotenone): ~0.015 µM

COCC(=O)O[C@]1(CCN(C)CCCc2nc3ccccc3[nH]2)CCc2cc(F)ccc2[C@@H]1C(C)C [mibefradil, Mibefradil]
IC50 ([4]; depolarizations to −50 mV from holding potential −100 mV): 4.6 µM | IC50 ([5]; Mus musculus, Neuron, mean dose-response, recording potential −60 mV): 5.9 µM | inhibition of cobalt-sensitive I-AHP ([5]; mibefradil, concentration not given, normalized to mean value of cobalt block, n=6): 94±10%

CN(CC(=O)O)C(=N)N [creatine]
effect on neuronal activity (globus pallidus neurones; millimolar concentrations): no effect
